Data reported in patent publication US20230053688A1, “METHODS TO ALTER LATENCY IN EBV+ MALIGNANCIES” (Cornell University, priority 2020, published 2023).
Where a name gives a salt, the structure may show the parent alone. Read-outs that look alike come from different tables or passages of the source.

System: LMP1 expression in Kem I cells
Assay: microbe, parasite or virus in culture
Format: cell-based, EBV
Settings: for fold induction at 2.5 µM: human gammaherpesvirus 4, 48 h
[1] = read-out: Average LMP1 Fold Increase, Kem I cells, 2.5 uM, 48 hours, average of replicates 1 and 2
[2] = read-out: Replicate 1-LMP1 Fold Increase, Kem I cells, 2.5 uM, 48 hours, fold change in LMP1 transcript vs vehicle
[3] = read-out: Replicate 2-LMP1 Fold Increase, Kem I cells, 2.5 uM, 48 hours, fold change in LMP1 transcript vs vehicle
[4] = Kem I cells, 2.5 uM, 48 hours, average of replicates 1 and 2
[5] = Kem I cells, 2.5 uM, 48 hours, fold change in LMP1 transcript vs vehicle
[6] = read-out: Average LMP1 Fold Increase, Kem I cells, dose 2.5 uM, 48 hours, LMP1 transcript by in-well qRT-PCR, average of the two replicates
[7] = read-out: Replicate 1-LMP1 Fold Increase, Kem I cells, dose 2.5 uM, 48 hours, LMP1 transcript by in-well qRT-PCR, screen replicate 1
[8] = read-out: Replicate 2-LMP1 Fold Increase, Kem I cells, dose 2.5 uM, 48 hours, LMP1 transcript by in-well qRT-PCR, screen replicate 2
[9] = Kem I cells, dose 2.5 uM, 48 hours, LMP1 transcript by in-well qRT-PCR, average of the two replicates
[10] = Kem I cells, dose 2.5 uM, 48 hours, LMP1 transcript by in-well qRT-PCR, screen replicate 1
[11] = Kem I cells, dose 2.5 uM, 48 hours, LMP1 transcript by in-well qRT-PCR, screen replicate 2

Compound | Average LMP1 Fold Increase [4] | Replicate 1-LMP1 Fold Increase [5] | Replicate 2-LMP1 Fold Increase [5] | other results
COc1ccccc1Oc1c(NS(=O)(=O)c2ccc(C(C)(C)C)cc2)nc(-c2ncccn2)nc1OCCO [Bosentan Hydrate] |  |  |  | fold induction at 2.5 µM [1]: 0.81; fold induction at 2.5 µM [2]: 1.22; fold induction at 2.5 µM [3]: 0.4
CO[C@H]1C[C@@H]2CC[C@@H](C)[C@@](O)(O2)C(=O)C(=O)N2CCCC[C@H]2C(=O)O[C@H]([C@H](C)C[C@@H]2CC[C@@H](OCCO)[C@H](OC)C2)CC(=O)[C@H](C)/C=C(\C)[C@@H](O)[C@@H](OC)C(=O)[C@H](C)C[C@H](C)/C=C/C=C/C=C/1C [Everolimus (RAD001)] | 1.65 | 2.00 | 1.31 | 
COc1cc(OC)c(/C=C/S(=O)(=O)Cc2ccc(OC)c(NCC(=O)O)c2)c(OC)c1 [Rigosertib (ON-01910)] | 0.57 | 0.69 | 0.46 | 
CCO.N#CC(=C(/N)Sc1ccccc1N)/C(C#N)=C(\N)Sc1ccccc1N [U0126-EtOH] |  |  |  | Average LMP1 Fold Increase: 0.58 fold; Replicate 1-LMP1 Fold Increase: 0.51 fold; Replicate 2-LMP1 Fold Increase: 0.65 fold
Nc1nc(N)c2nc(-c3ccccc3)c(N)nc2n1 [Triamterene] |  |  |  | fold induction at 2.5 µM [6]: 0.91; fold induction at 2.5 µM [7]: 0.56; fold induction at 2.5 µM [8]: 1.26
Cc1[nH]c2ccccc2c1CCNCc1ccc(/C=C/C(=O)NO)cc1 [Panobinostat (LBH589)] | 383.26 | 451.65 | 314.88 | 
CC#CCn1c(N2CCC[C@@H](N)C2)nc2c1c(=O)n(Cc1nc(C)c3ccccc3n1)c(=O)n2C [Linagliptin] |  |  |  | fold induction at 2.5 µM [1]: 0.91; fold induction at 2.5 µM [2]: 1.01; fold induction at 2.5 µM [3]: 0.81
CN1C2CCCC1CC(NC(=O)c1nn(C)c3ccccc13)C2 (stereo not drawn) [Granisetron HCl] |  |  |  | fold induction at 2.5 µM [1]: 0.25; fold induction at 2.5 µM [2]: 0.25; fold induction at 2.5 µM [3]: 0.24
CC12CC3CC(C)(C1)CC(N)(C3)C2 [Memantine HCl] |  |  |  | fold induction at 2.5 µM [1]: 0.42; fold induction at 2.5 µM [2]: 0.55; fold induction at 2.5 µM [3]: 0.3
CCOC(=O)N1c2ccc(C(F)(F)F)cc2[C@@H](N(Cc2cc(C(F)(F)F)cc(C(F)(F)F)c2)C(=O)OC)C[C@H]1CC [Torcetrapib] |  |  |  | fold induction at 2.5 µM [6]: 0.5; fold induction at 2.5 µM [7]: 0.4; fold induction at 2.5 µM [8]: 0.6
Cn1c(N2CCCCS2(=O)=O)nc(C(=O)NCc2ccc(F)cc2)c(O)c1=O [BMS-707035] |  |  |  | fold induction at 2.5 µM [1]: 43.1; fold induction at 2.5 µM [2]: 18.2; fold induction at 2.5 µM [3]: 68
CCc1c(C(=O)NCCc2ccc(N3CCCCC3)cc2)[nH]c2ccc(Cl)cc12 [Org 27569] | 0.51 | 0.49 | 0.53 | 
COc1ccc([C@]2(C#N)CC[C@@H](C(=O)O)CC2)cc1OC1CCCC1 [Cilomilast] |  |  |  | fold induction at 2.5 µM [1]: 1.06; fold induction at 2.5 µM [2]: 0.95; fold induction at 2.5 µM [3]: 1.18
Nc1ncnc2n[nH]c(Nc3ccc(F)cc3)c12 [CGP 57380] | 1.33 | 0.81 | 1.86 | 
O=C(/C=C/c1cccc(S(=O)(=O)Nc2ccccc2)c1)NO [Belinostat (PXD101)] | 51.63 | 17.40 | 85.87 | 
O=C(NNc1ccccc1)c1ccncc1 [PluriSln #1 (NSC 14613)] | 1.32 | 1.70 | 0.94 | 
CNC(=O)c1ccc2cc([C@@]3(O)CCn4cncc43)ccc2c1 [TAK-700 (Orteronel)] |  |  |  | Average LMP1 Fold Increase [9]: 0.90 fold; Replicate 1-LMP1 Fold Increase [10]: 0.75 fold; Replicate 2-LMP1 Fold Increase [11]: 1.06 fold
C[C@@H]1COCCN1c1cc(C2(S(C)(=O)=O)CC2)nc(-c2cccc3[nH]ccc23)n1 [AZ20] | 1.39 | 1.56 | 1.22 | 
COc1cc2c(cc1OC)[C@@H]1Cc3ccc(OC)c(OC)c3CN1CC2 [Rotundine] |  |  |  | fold induction at 2.5 µM [1]: 0.28; fold induction at 2.5 µM [2]: 0.3; fold induction at 2.5 µM [3]: 0.27
CCOc1ccc(Cc2cc([C@@H]3O[C@H](CO)[C@@H](O)[C@H](O)[C@H]3O)ccc2Cl)cc1 [Dapagliflozin] |  |  |  | fold induction at 2.5 µM [1]: 1.01; fold induction at 2.5 µM [2]: 0.69; fold induction at 2.5 µM [3]: 1.34
Oc1nc(-c2ccc(C(F)(F)F)cc2)nc2c1CSCC2 [XAV-939] |  |  |  | fold induction at 2.5 µM [6]: 0.73; fold induction at 2.5 µM [7]: 0.73; fold induction at 2.5 µM [8]: 0.73
COc1ccc2cc([C@H](C)C(=O)O)ccc2c1 [Naproxen] |  |  |  | fold induction at 2.5 µM [1]: 0.62; fold induction at 2.5 µM [2]: 0.69; fold induction at 2.5 µM [3]: 0.56

Compound | Average LMP1 Fold Increase [4] | Replicate 1-LMP1 Fold Increase [5] | Replicate 2-LMP1 Fold Increase [5] | other results
CCN1CCC[C@H]1CNC(=O)c1cc(S(N)(=O)=O)ccc1OC [Levosulpiride] |  |  |  | fold induction at 2.5 µM [1]: 0.5; fold induction at 2.5 µM [2]: 0.7; fold induction at 2.5 µM [3]: 0.3
C[C@H](Oc1cc(-c2cnn(C3CCNCC3)c2)cnc1N)c1c(Cl)ccc(F)c1Cl [(S)-crizotinib] | 0.70 | 0.57 | 0.84 | 
CNC(=O)[C@H](Cc1c[nH]c2ccccc12)NC(=O)[C@@H](CC(=O)NO)CC(C)C [Ilomastat (GM6001, Galardin)] | 0.08 | 0.05 | 0.12 | 
O=C(/C=C/c1ccccc1)NC(NC(=S)Nc1ccc(Cl)cc1)C(Cl)(Cl)Cl (stereo not drawn) [Sal003] | 0.64 | 0.76 | 0.53 | 
Cc1cccc(CC(=O)N2CCc3c2ccc(-c2cn(C)c4ncnc(N)c24)c3F)n1 [GSK2656157] | 0.71 | 0.58 | 0.84 | 
CS(=O)(=O)c1ccc(-c2cnc(N)c(C(=O)Nc3ccccc3)n2)cc1 [VE-821] |  |  |  | fold induction at 2.5 µM [6]: 0.17; fold induction at 2.5 µM [7]: 0.2; fold induction at 2.5 µM [8]: 0.14
CCCC(=O)Nc1cccc(NC(=O)c2ccccc2Br)c1 [ML161] | 0.83 | 1.11 | 0.54 | 
C#Cc1cccc(Nc2ncnc3cc(OCCOC)c(OCCO)cc23)c1 [OSI-420] | 0.66 | 0.84 | 0.49 | 
CC(C)N(CC[C@H](c1ccccc1)c1cc(CO)ccc1O)C(C)C | 0.36 | 0.49 | 0.23 | 
Cc1ccc(C(=O)N(CCCN)[C@@H](c2oc3cc(Cl)ccc3c(=O)c2Cc2ccccc2)C(C)C)cc1 [SB743921] | 1.76 | 1.10 | 2.41 | 
O=c1oc2cc(O)ccc2s1 [Tioxolone] |  |  |  | fold induction at 2.5 µM [6]: 0.55; fold induction at 2.5 µM [7]: 0.7; fold induction at 2.5 µM [8]: 0.41
O=C(O)c1cccc(-c2noc(-c3ccccc3F)n2)c1 [Ataluren (PTC124)] | 0.49 | 0.50 | 0.48 | 
CC(C)(C)c1cc(NC(=O)Nc2ccc(-c3cn4c(n3)sc3cc(OCCN5CCOCC5)ccc34)cc2)no1 [Quizartinib (AC220)] | 0.93 | 0.71 | 1.15 | 
O=S(=O)(c1ccccc1)c1cnc2c(N3CCNCC3)cccc2c1 [SB742457] | 0.82 | 1.09 | 0.55 | 
CN(Cc1cnc2nc(N)nc(N)c2n1)c1ccc(C(=O)N[C@@H](CCC(=O)O)C(=O)O)cc1 [Abitrexate (Methotrexate)] | 3.17 | 3.70 | 2.64 | 
OG-L002 | 1.15 | 1.03 | 1.27 | 
Cl.NC(=O)c1cnc(N[C@@H]2CCCC[C@@H]2N)nc1Nc1cccc(-n2nccn2)c1 [PRT062607(P505-15, BIIB057) HCl] | 0.54 | 0.25 | 0.83 | 
CN(C)CCCCC(=O)Nc1ccc(NC(=S)NC(=O)c2ccc(C(C)(C)C)cc2)cc1 [Tenovin-6] |  |  |  | Average LMP1 Fold Increase [9]: 1.79 fold; Replicate 1-LMP1 Fold Increase [10]: 1.55 fold; Replicate 2-LMP1 Fold Increase [11]: 2.03 fold
KX2-391 | 1.63 | 2.01 | 1.25 | 
COCCOc1ccc2c(c1)ncn2-c1ccc2cccc(N3CCC(N)CC3)c2n1 [CP-673451] |  |  |  | fold induction at 2.5 µM [1]: 0.49; fold induction at 2.5 µM [2]: 0.52; fold induction at 2.5 µM [3]: 0.45
CN1CCc2cc3c(cc2[C@H]1[C@@H]1OC(=O)c2c1ccc1c2OCO1)OCO3 [(+)-Bicuculline] | 0.89 | 0.86 | 0.93 | 
C#CCN[C@@H]1CCc2ccccc21 [Rasagiline Mesylate] |  |  |  | fold induction at 2.5 µM [1]: 0.69; fold induction at 2.5 µM [2]: 0.86; fold induction at 2.5 µM [3]: 0.51
